Measurements from patent publication US10793580B2, “Substituted pyrazoloazepin-8-ones and their use as phosphodiesterase inhibitors” (LEO Pharma A/S, priority 2016, dated 2020).
Read-outs that look alike come from different tables or passages of the source.

Molecular target: human PDE4D catalytic domain (Homo sapiens (Human), UniProt Q08499)
Assay: PDE4 Assay (TR-FRET, FAM-cAMP cleavage)
Format: biochemical
Conditions: read-out: PDE4 IC50 range
Method in brief: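 Readout is Tb-to-FAM time-resolved FRET after nanoparticle capture of AMP, the product of cleaving a cAMP/FAM-cAMP mixture by PDE4D catalytic domain (S380-L740) in the presence of titrated compound. Values are IC50 ranges in nM: concentration halving substrate cleavage relative to controls.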

[1] = human PDE4D catalytic domain (UniProt Q08499 [S380-L740]), 50% inhibition of substrate cleavage

Chain of human PDE4D catalytic domain (Q08499 380-740): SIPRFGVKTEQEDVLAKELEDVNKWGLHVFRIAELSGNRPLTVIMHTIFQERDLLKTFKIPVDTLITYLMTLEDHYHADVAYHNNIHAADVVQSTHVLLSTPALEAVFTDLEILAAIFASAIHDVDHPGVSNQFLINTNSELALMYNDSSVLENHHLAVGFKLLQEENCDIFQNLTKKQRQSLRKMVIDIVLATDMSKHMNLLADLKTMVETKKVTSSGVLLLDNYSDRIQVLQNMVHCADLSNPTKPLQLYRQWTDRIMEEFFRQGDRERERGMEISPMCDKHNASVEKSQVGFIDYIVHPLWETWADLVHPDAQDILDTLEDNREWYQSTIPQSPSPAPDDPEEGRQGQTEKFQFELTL

CCn1nc(CCOC(=O)c2ccc(C)cc2)c2c1C(=O)NCC1(CCOCC1)C2 [Example 135, 2-(1-ethyl-8-oxo-spiro[6,7-dihydro-4H-pyrazolo[3,4-c]azepine-5,4′-tetrahydropyran]-3-yl)ethyl 4-methylbenzoate] was tested, and the IC50 [1] was less than 100 nM.

CCn1nc(CCCCOC(=O)c2cc(C)nc(C)c2)c2c1C(=O)NCC1(CCOCC1)C2 [Example 273, 4-(1-ethyl-8-oxo-spiro[6,7-dihydro-4H-pyrazolo[3,4-c]azepine-5,4′-tetrahydro-pyran]-3-yl)butyl 2,6-dimethylpyridine-4-carboxylate] was tested, and the IC50 [1] was less than 100 nM.

In the case of CCn1nc(C[C@@H](C)COC(=O)c2cc(C)nc(C)c2)c2c1C(=O)NCC1(CCOCC1)C2 [Example 293, [(2R)-3-(1-ethyl-8-oxo-spiro[6,7-dihydro-4H-pyrazolo[3,4-c]azepine-5,4′-tetrahydropyran]-3-yl)-2-methyl-propyl] 2,6-dimethylpyridine-4-carboxylate], the IC50 (Table 16, Examples 277-296) is reported as less than 100 nM.

In the case of CCn1nc(CCCOC(=O)c2ccc(C)cc2)c2c1C(=O)NCC1(CCOCC1)C2 [Example 8, 3-(1-ethyl-8-oxo-spiro[6,7-dihydro-4H-pyrazolo[3,4-c]azepine-5,4′-tetrahydropyran]-3-yl)propyl 4-methylbenzoate], the IC50 [1] is reported as less than 100 nM.

Work on CCn1nc(C[C@@H](C)COC(=O)c2cnsc2)c2c1C(=O)NCC1(CCOCC1)C2 [Example 284, [(2R)-3-(1-ethyl-8-oxo-spiro[6,7-dihydro-4H-pyrazolo[3,4-c]azepine-5,4′-tetrahydropyran]-3-yl)-2-methyl-propyl] isothiazole-4-carboxylate] yielded an IC50 (Table 16, Examples 277-296) of less than 100 nM.

With CCn1nc(CCCOC(=O)c2cc(Cl)ccc2F)c2c1C(=O)NCC1(CCOCC1)C2 [Example 51, 3-(1-ethyl-8-oxo-spiro[6,7-dihydro-4H-pyrazolo[3,4-c]azepine-5,4′-tetrahydropyran]-3-yl)propyl 5-chloro-2-fluoro-benzoate] the IC50 [1] was less than 100 nM.

CCn1nc(CCCOC(=O)c2cc(Cl)ccc2C(F)(F)F)c2c1C(=O)NCC1(CCOCC1)C2 [Example 87, 3-(1-ethyl-8-oxo-spiro[6,7-dihydro-4H-pyrazolo[3,4-c]azepine-5,4′-tetrahydro-pyran]-3-yl)propyl 5-chloro-2-(trifluoromethyl)benzoate] was tested, and the IC50 [1] was less than 100 nM.

Compound CCn1nc(CCCOC(=O)c2ccc(C)cc2Cl)c2c1C(=O)NCC1(CCOCC1)C2 [Example 42, 3-(1-ethyl-8-oxo-spiro[6,7-dihydro-4H-pyrazolo[3,4-c]azepine-5,4′-tetrahydropyran]-3-yl)propyl 2-chloro-4-methyl-benzoate] has an IC50 [1] of less than 100 nM.

CCn1nc(CCCOC(=O)c2cc(F)cc(Cl)c2)c2c1C(=O)NCC1(CCOCC1)C2 [Example 47, 3-(1-ethyl-8-oxo-spiro[6,7-dihydro-4H-pyrazolo[3,4-c]azepine-5,4′-tetrahydropyran]-3-yl)propyl 3-chloro-5-fluoro-benzoate] was tested, and the IC50 [1] was less than 100 nM.

For CCn1nc(CCCOC(=O)c2cc(C)nc(C)c2)c2c1C(=O)NCC1(CCOCC1)C2 [Example 258, 3-(1-ethyl-8-oxo-spiro[6,7-dihydro-4H-pyrazolo[3,4-c]azepine-5,4′-tetrahydro-pyran]-3-yl)propyl 2,6-dimethylpyridine-4-carboxylate], the IC50 [1] was less than 100 nM.

CCn1nc(CC(C)(C)COC(=O)c2ccc(C(=O)N(C)C)cc2)c2c1C(=O)NCC1(CCOCC1)C2 [Example 220, [3-(1-ethyl-8-oxo-spiro[6,7-dihydro-4H-pyrazolo[3,4-c]azepine-5,4′-tetra-hydropyran]-3-yl)-2,2-dimethyl-propyl] 4-(di-methylcarbamoyl)benzoate] was tested, and the IC50 [1] was less than 100 nM.

For CCn1nc(C[C@@H](C)COC(=O)c2ccc(C(=O)N3CCN(C)CC3)cc2)c2c1C(=O)NCC1(CCOCC1)C2 [Example 175, [(2R)-3-(1-ethyl-8-oxo-spiro[6,7-dihydro-4H-pyrazolo[3,4-c]azepine-5,4′-tetrahydropyran]-3-yl)-2-methyl-propyl] 4-(4-methylpiperazine-1-carbonyl)benzoate], the IC50 [1] was less than 100 nM.

In the case of CCn1nc(CCCOC(=O)c2cc(C)ns2)c2c1C(=O)NCC1(CCOCC1)C2 [Example 253, 3-(1-ethyl-8-oxo-spiro[6,7-dihydro-4H-pyrazolo[3,4-c]azepine-5,4′-tetrahydropyran]-3-yl)propyl 3-methylisothiazole-5-carboxylate], the IC50 [1] is reported as less than 100 nM.

Work on CCn1nc(C[C@@H](C)COC(=O)c2ccc(S(C)(=O)=O)cc2)c2c1C(=O)NCC1(CCOCC1)C2 [Example 155, [(2R)-3-(1-ethyl-8-oxo-spiro[6,7-dihydro-4H-pyrazolo[3,4-c]azepine-5,4′-tetrahydropyran]-3-yl)-2-methyl-propyl] 4-methylsulfonylbenzoate] yielded an IC50 [1] of less than 100 nM.

In the case of CCn1nc(CC(C)(C)COC(=O)c2ccccc2C)c2c1C(=O)NCC1(CCOCC1)C2 [Example 189, [3-(1-ethyl-8-oxo-spiro[6,7-dihydro-4H-pyrazolo[3,4-c]azepine-5,4′-tetrahydropyran]-3-yl)-2,2-dimethyl-propyl] 2-methylbenzoate], the IC50 [1] is reported as less than 100 nM.

CCn1nc(CC(C)(C)COC(=O)c2ccc(S(=O)(=O)N(C)Cc3ccccc3)cc2)c2c1C(=O)NCC1(CCOCC1)C2 [Example 214, [3-(1-ethyl-8-oxo-spiro[6,7-dihydro-4H-pyrazolo[3,4-c]azepine-5,4′-tetrahydropyran]-3-yl)-2,2-dimethyl-propyl] 4-[benzyl(methyl)sulfamoyl] benzoate] was tested, and the IC50 [1] was less than 100 nM.

With CCn1nc(CC(C)(C)COC(=O)c2ccc(C(=O)NC)cc2)c2c1C(=O)NCC1(CCOCC1)C2 [Example 219, [3-(1-ethyl-8-oxo-spiro[6,7-dihydro-4H-pyrazolo[3,4-c]azepine-5,4′-tetrahydropyran]-3-yl)-2,2-dimethyl-propyl] 4-(methylcarbamoyl)benzoate] the IC50 [1] was less than 100 nM.

Work on CCn1nc(CC(C)(C)COC(=O)c2cccc(S(=O)(=O)N3CCN(C(C)=O)CC3)c2)c2c1C(=O)NCC1(CCOCC1)C2 [Example 215, [3-(1-ethyl-8-oxo-spiro[6,7-dihydro-4H-pyrazolo[3,4-c]azepine-5,4′-tetrahydropyran]-3-yl)-2,2-dimethyl-propyl] 3-(4-acetylpiperazin-1-yl)sulfonylbenzoate] yielded an IC50 [1] of less than 100 nM.

For CCn1nc(CCCOC(=O)c2csc(C)n2)c2c1C(=O)NCC1(CCOCC1)C2 [Example 254, 3-(1-ethyl-8-oxo-spiro[6,7-dihydro-4H-pyrazolo[3,4-c]azepine-5,4′-tetrahydropyran]-3-yl)propyl 2-methylthiazole-4-carboxylate], the IC50 [1] was less than 100 nM.

With CCn1nc(C[C@@H](C)COC(=O)c2ccc(C)cc2)c2c1C(=O)NCC1(CCOCC1)C2 [Example 140, [(2R)-3-(1-ethyl-8-oxo-spiro[6,7-dihydro-4H-pyrazolo[3,4-c]azepine-5,4′-tetrahydropyran]-3-yl)-2-methyl-propyl] 4-methylbenzoate] the IC50 [1] was less than 100 nM.

CCn1nc(CCCOC(=O)c2ccc(S(=O)(=O)C3CCCC3)cc2)c2c1C(=O)NCC1(CCOCC1)C2 [Example 94, 3-(1-ethyl-8-oxo-spiro[6,7-dihydro-4H-pyrazolo[3,4-c]azepine-5,4′-tetrahydropyran]-3-yl)propyl 4-cyclopentylsulfonylbenzoate] gave an IC50 [1] of less than 100 nM.

Work on CCn1nc(CCCCOC(=O)C(C)C)c2c1C(=O)NCC1(CCOCC1)C2 [Example 121, 4-(1-ethyl-8-oxo-spiro[6,7-dihydro-4H-pyrazolo[3,4-c]azepine-5,4′-tetrahydropyran]-3-yl)butyl 2-methyl-propanoate] yielded an IC50 [1] of less than 100 nM.

In the case of CCn1nc(CCCOC(=O)c2ccc(S(=O)(=O)NC)cc2)c2c1C(=O)NCC1(CCOCC1)C2 [Example 1, 3-(1-Ethyl-8-oxo-spiro[6,7-dihydro-4H-pyrazolo[3,4-c]azepine-5,4′-tetrahydropyran]-3-yl)propyl 4-(methylsulfamoyl)benzoate], the IC50 [1] is reported as less than 100 nM.

Compound CCn1nc(CC(C)(C)COC(=O)c2cn(C)cn2)c2c1C(=O)NCC1(CCOCC1)C2 [Example 300, [3-(1-ethyl-8-oxo-spiro[6,7-dihydro-4H-pyrazolo[3,4-c]azepine-5,4′-tetrahydropyran]-3-yl)-2,2-dimethyl-propyl] 1-methylimidazole-4-carboxylate] has an IC50 (Table 17, Examples 297-316) of less than 100 nM.

For CCn1nc(C[C@@H](C)COC(=O)c2ccc(S(=O)(=O)NC)cc2)c2c1C(=O)NCC1(CCOCC1)C2 [Example 158, [(2R)-3-(1-ethyl-8-oxo-spiro[6,7-dihydro-4H-pyrazolo[3,4-c]azepine-5,4′-tetrahydropyran]-3-yl)-2-methyl-propyl] 4-(methylsulfamoyl)benzoate], the IC50 [1] was less than 100 nM.

Compound CCn1nc(CC(C)(C)COC(=O)c2cccc(C)c2)c2c1C(=O)NCC1(CCOCC1)C2 [Example 190, [3-(1-ethyl-8-oxo-spiro[6,7-dihydro-4H-pyrazolo[3,4-c]azepine-5,4′-tetrahydropyran]-3-yl)-2,2-dimethyl-propyl] 3-methylbenzoate] has an IC50 [1] of less than 100 nM.

In the case of CCn1nc(CCCOC(=O)c2ccc(Cl)c(F)c2)c2c1C(=O)NCC1(CCOCC1)C2 [Example 48, 3-(1-ethyl-8-oxo-spiro[6,7-dihydro-4H-pyrazolo[3,4-c]azepine-5,4′-tetrahydropyran]-3-yl)propyl 4-chloro-3-fluoro-benzoate], the IC50 [1] is reported as less than 100 nM.

Work on CCn1nc(C[C@@H](C)COC(=O)c2cccc(S(=O)(=O)C(C)C)c2)c2c1C(=O)NCC1(CCOCC1)C2 [Example 159, [(2R)-3-(1-ethyl-8-oxo-spiro[6,7-dihydro-4H-pyrazolo[3,4-c]azepine-5,4′-tetrahydropyran]-3-yl)-2-methyl-propyl] 3-isopropylsulfonylbenzoate] yielded an IC50 [1] of less than 100 nM.

For CCn1nc(CCCOC(=O)c2ccc(C(F)(F)F)c(C(F)(F)F)c2)c2c1C(=O)NCC1(CCOCC1)C2 [Example 98, 3-(1-ethyl-8-oxo-spiro[6,7-dihydro-4H-pyrazolo[3,4-c]azepine-5,4′-tetrahydropyran]-3-yl)propyl 3,4-bis(trifluoromethyl)benzoate], the IC50 [1] was less than 100 nM.
